Reference: ChEMBL document CHEMBL4665659, “Utilizing comprehensive and mini-kinome panels to optimize the selectivity of quinoline inhibitors for cyclin G associated kinase (GAK)” (Bioorg Med Chem Lett, 2019)
Values belong to the compound of their own block, whether it stands above or below them.

Experiments:
[1] = biological target: T1, Cyclin-G-associated kinase (Homo sapiens, UniProt O14976); test: Binding affinity to human wild type partial length GAK (G13 to Y338 residues) expressed in bacterial expression system by KinomeScan method
T1 sequence (O14976 whole entry): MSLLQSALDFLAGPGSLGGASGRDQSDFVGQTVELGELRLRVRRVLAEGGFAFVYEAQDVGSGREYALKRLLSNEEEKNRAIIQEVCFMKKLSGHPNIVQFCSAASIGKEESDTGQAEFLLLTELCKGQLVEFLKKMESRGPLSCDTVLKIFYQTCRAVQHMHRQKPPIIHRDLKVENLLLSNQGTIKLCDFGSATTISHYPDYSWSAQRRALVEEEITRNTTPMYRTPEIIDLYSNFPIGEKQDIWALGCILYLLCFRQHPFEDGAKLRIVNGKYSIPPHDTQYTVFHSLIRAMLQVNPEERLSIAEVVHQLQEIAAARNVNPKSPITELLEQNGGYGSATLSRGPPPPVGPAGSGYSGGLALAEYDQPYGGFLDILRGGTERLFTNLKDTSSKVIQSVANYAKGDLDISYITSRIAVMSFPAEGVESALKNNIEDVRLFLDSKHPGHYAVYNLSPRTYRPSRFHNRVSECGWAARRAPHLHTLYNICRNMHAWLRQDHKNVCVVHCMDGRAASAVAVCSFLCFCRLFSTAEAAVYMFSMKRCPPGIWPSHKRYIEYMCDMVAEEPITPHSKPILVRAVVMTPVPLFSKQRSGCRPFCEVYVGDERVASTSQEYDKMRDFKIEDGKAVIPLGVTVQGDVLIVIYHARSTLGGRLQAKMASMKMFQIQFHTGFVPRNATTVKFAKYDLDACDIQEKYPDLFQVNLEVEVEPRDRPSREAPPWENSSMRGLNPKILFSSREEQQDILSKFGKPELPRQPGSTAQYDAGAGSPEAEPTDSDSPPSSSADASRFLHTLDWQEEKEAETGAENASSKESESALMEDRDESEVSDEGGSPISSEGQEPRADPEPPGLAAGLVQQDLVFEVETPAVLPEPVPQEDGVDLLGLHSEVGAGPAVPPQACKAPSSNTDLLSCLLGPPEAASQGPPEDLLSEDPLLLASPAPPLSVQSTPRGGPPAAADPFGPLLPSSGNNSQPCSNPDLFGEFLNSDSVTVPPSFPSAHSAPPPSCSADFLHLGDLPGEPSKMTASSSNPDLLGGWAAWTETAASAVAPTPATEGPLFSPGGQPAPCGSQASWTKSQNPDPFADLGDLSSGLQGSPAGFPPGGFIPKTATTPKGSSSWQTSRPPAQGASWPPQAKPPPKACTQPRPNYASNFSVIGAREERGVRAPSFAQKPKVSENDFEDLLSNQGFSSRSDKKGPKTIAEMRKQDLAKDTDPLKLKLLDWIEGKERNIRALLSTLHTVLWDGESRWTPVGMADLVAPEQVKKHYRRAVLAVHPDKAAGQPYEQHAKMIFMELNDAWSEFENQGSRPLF

[2] = biological target: Interleukin-1 receptor-associated kinase 3 (Homo sapiens, UniProt Q9Y616); test: Binding affinity to human wild type partial length IRAK3 (V147 to E596 residues) expressed in bacterial expression system by Kinomescan method
[3] = biological target: T1, Cyclin-G-associated kinase; test: Inhibition of GAK (unknown origin) by in-cell pulse based assay
[4] = biological target: T2, Tyrosine-protein kinase ABL1 (Homo sapiens, UniProt P00519); test: Binding affinity to human wild type partial length non-phosphorylated ABL1 (S229 to K512 residues) expressed in mammalian expression system by Kinomescan method
Ephrin type-A receptor 1 = Ephrin type-A receptor 1 (Homo sapiens, UniProt P21709); test: Binding affinity to human wild type partial length EphA1 (V588 to I913 residues) expressed in bacterial expression system by Kinomescan method
Ephrin type-A receptor 8 = Ephrin type-A receptor 8 (Homo sapiens, UniProt P29322); test: Binding affinity to human wild type partial length EphA8 (Q608 to C920 residues) expressed in bacterial expression system by Kinomescan method
Ephrin type-B receptor 6 = biological target: T3, Ephrin type-B receptor 6 (Homo sapiens, UniProt O15197); test: Binding affinity to human wild type partial length EphB6 (Q634 to P948 residues) expressed in mammalian expression system by Kinomescan method
T3 sequence (O15197 whole entry): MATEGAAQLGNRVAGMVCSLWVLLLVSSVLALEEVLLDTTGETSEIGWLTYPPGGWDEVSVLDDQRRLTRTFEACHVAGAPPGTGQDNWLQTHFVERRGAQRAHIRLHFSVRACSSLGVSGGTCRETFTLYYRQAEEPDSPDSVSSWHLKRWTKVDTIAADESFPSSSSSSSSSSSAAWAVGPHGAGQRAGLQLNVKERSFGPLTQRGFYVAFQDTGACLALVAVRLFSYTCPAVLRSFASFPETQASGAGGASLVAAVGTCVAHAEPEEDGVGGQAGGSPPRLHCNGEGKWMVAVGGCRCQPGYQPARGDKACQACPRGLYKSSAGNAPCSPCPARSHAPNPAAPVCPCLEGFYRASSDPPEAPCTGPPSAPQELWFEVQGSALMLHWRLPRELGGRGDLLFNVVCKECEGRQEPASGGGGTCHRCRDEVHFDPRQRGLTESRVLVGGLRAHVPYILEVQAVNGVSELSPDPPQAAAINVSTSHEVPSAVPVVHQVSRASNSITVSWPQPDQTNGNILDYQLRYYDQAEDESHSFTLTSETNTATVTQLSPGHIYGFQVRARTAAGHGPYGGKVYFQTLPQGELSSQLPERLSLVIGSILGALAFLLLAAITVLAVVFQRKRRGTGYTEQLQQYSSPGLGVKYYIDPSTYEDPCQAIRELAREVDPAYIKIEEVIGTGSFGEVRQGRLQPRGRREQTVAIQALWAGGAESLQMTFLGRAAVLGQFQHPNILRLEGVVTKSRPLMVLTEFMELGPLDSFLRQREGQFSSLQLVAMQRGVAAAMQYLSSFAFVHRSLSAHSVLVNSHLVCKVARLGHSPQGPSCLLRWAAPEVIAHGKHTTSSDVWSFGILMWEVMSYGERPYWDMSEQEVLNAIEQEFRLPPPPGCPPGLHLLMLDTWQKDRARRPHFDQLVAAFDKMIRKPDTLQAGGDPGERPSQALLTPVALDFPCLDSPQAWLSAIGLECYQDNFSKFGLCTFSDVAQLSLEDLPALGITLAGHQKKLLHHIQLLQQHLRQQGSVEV

[5] = biological target: Tyrosine-protein kinase Lck (Homo sapiens, UniProt P06239); test: Binding affinity to wild-type human partial length LCK (R207 to P509 residues) expressed in bacterial expression system by Kinomescan method
[6] = biological target: Serine/threonine-protein kinase NLK (Homo sapiens, UniProt Q9UBE8); test: Binding affinity to wild-type human full length NLK expressed in bacterial expression system by Kinomescan method
[7] = biological target: Tyrosine-protein kinase TXK (Homo sapiens, UniProt P42681); test: Binding affinity to wild-type human partial length TXK (L238 to W527 residues) expressed in bacterial expression system by Kinomescan method
[8] = biological target: RAF proto-oncogene serine/threonine-protein kinase (Homo sapiens) (UniProt P04049); test: Inhibition of human wild type partial length C-Raf (I330 to T640 residues) expressed in bacterial expression system at 1 uM by Kinomescan method relative to control
Activin receptor type-1 = Activin receptor type-1 (Homo sapiens, UniProt Q04771); test: Binding affinity to human wild type partial length ACVR1 (C188 to C509 residues) expressed in bacterial expression system by Kinomescan method
[9] = biological target: Atypical kinase COQ8A, mitochondrial (Homo sapiens, UniProt Q8NI60); test: Binding affinity to human wild type full-length ADCK3 expressed in bacterial expression system by Kinomescan method
[10] = biological target: T2, Tyrosine-protein kinase ABL1; test: Binding affinity to human wild type partial length phosphorylated ABL1 (S229 to K512 residues) expressed in mammalian expression system by Kinomescan method
[11] = biological target: Bone morphogenetic protein receptor type-1B (Homo sapiens, UniProt O00238); test: Binding affinity to human wild type partial length BMPR1B (D178 to L502 residues) expressed in mammalian expression system by Kinomescan method
[12] = biological target: Dual specificity mitogen-activated protein kinase kinase 5 (Homo sapiens, UniProt Q13163); test: Binding affinity to human wild type partial length MEK5 (L98 to P448 residues) expressed in mammalian expression system by Kinomescan method
[13] = biological target: Receptor-interacting serine/threonine-protein kinase 2 (Homo sapiens, UniProt O43353); test: Binding affinity to wild-type human partial length RIPK2 (M1 to K310 residues) expressed in bacterial expression system by Kinomescan method

T2 sequence (P00519 whole entry, the tested form may be a part): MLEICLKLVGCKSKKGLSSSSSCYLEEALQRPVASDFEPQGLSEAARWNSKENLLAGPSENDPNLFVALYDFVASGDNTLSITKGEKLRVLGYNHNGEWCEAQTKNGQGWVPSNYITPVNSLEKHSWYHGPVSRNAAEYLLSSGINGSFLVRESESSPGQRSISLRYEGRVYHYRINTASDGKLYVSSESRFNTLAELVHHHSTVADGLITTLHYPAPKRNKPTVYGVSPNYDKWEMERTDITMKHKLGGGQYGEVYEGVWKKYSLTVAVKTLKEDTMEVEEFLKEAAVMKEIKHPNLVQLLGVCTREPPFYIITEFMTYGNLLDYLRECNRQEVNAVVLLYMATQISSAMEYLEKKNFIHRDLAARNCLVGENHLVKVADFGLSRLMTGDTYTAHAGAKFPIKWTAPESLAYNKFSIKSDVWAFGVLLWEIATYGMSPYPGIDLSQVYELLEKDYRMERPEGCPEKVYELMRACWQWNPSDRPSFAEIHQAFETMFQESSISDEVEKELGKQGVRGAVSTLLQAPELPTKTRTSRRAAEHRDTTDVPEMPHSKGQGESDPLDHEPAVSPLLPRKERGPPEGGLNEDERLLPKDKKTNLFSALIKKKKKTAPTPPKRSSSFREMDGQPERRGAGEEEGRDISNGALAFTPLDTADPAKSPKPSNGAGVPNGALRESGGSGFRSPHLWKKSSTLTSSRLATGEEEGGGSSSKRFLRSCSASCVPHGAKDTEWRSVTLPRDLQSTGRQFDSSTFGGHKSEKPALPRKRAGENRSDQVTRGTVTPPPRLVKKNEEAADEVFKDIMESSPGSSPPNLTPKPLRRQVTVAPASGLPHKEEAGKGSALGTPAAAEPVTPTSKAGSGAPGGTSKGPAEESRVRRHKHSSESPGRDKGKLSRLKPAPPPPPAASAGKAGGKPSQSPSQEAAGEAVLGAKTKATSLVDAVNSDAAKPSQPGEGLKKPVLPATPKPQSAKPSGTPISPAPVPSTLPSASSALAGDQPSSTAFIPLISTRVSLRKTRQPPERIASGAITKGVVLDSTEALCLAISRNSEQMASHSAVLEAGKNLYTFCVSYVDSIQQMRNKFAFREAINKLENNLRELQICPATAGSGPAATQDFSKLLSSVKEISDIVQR
Sequence of Activin receptor type-1 (Q04771 whole entry, the tested form may be a part): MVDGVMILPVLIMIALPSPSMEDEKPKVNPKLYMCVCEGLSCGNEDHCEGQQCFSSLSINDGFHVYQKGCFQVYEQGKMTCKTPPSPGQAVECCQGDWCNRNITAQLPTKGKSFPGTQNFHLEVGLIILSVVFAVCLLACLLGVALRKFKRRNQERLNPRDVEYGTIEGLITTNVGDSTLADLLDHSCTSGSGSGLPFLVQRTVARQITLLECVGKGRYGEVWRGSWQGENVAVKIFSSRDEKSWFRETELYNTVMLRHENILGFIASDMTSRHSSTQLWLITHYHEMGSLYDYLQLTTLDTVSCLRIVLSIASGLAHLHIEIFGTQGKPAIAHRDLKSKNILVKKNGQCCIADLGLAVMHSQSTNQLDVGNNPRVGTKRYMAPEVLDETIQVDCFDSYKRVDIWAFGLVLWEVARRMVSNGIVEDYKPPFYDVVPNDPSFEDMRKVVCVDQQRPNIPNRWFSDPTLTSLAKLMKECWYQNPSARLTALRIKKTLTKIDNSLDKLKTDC
Sequence of Ephrin type-A receptor 8 (P29322 whole entry, the tested form may be a part): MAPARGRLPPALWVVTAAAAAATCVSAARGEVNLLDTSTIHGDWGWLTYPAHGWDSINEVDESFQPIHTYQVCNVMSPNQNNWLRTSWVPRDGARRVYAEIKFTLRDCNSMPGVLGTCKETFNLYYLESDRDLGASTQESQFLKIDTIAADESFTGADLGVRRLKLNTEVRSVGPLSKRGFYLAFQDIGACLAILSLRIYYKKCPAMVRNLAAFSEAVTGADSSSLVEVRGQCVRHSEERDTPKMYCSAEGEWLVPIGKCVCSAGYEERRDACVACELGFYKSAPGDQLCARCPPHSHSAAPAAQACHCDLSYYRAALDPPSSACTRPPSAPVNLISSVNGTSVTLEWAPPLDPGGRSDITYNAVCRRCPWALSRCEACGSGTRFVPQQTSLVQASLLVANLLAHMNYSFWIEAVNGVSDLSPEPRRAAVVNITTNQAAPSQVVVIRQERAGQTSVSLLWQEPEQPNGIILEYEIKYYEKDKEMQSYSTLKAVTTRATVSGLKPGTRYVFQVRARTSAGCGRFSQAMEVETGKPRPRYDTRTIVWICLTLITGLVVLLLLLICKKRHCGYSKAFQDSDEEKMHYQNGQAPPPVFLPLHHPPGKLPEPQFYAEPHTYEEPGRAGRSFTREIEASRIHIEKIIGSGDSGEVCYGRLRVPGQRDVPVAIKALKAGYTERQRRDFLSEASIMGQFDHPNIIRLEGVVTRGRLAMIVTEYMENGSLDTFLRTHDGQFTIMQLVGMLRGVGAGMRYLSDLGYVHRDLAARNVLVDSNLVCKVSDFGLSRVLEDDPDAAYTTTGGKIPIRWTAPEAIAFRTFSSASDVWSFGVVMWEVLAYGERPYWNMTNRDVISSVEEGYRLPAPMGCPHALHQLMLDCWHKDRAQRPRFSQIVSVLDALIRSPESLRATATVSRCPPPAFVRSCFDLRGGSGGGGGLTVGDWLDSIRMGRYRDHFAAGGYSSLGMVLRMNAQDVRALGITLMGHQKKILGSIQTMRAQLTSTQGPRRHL
Sequence of Tyrosine-protein kinase Lck (P06239 whole entry, the tested form may be a part): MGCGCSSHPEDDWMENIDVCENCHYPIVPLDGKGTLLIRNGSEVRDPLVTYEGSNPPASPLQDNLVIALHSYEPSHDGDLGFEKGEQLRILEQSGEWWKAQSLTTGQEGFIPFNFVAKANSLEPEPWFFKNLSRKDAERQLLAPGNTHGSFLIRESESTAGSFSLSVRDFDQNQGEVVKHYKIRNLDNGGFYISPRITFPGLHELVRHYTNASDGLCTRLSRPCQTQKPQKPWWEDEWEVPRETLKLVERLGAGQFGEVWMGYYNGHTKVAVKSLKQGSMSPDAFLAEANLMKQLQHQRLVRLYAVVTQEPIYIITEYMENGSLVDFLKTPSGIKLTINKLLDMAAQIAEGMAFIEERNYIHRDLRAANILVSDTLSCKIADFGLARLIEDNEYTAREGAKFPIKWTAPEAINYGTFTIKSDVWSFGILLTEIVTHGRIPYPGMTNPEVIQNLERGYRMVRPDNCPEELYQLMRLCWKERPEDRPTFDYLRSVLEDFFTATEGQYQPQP
Sequence of Ephrin type-A receptor 1 (P21709 whole entry, the tested form may be a part): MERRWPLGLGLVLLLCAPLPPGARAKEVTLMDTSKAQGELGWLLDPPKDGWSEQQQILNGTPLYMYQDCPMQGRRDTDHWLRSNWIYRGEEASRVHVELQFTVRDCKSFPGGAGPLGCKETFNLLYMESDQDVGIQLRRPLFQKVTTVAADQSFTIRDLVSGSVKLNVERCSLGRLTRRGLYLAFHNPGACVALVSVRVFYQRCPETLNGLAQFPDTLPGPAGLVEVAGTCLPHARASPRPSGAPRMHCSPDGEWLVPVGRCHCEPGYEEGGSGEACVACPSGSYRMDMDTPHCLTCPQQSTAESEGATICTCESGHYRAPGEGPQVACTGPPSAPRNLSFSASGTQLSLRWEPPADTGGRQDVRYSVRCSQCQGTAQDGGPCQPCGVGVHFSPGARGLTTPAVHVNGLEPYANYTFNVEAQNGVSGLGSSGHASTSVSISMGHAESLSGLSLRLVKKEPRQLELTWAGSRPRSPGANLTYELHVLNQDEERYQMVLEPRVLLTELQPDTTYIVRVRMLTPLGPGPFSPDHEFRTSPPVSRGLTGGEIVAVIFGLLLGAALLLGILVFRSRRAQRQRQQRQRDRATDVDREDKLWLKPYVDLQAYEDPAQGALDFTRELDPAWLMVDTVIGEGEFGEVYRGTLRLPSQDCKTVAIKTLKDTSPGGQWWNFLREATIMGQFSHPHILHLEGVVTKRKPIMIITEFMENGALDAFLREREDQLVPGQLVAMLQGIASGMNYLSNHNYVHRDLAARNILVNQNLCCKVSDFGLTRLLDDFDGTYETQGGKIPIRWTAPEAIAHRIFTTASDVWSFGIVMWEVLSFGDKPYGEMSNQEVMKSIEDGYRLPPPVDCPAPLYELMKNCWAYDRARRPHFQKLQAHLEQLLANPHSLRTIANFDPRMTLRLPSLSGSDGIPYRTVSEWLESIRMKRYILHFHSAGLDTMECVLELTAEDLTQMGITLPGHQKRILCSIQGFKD
Sequence of Bone morphogenetic protein receptor type-1B (O00238 whole entry, the tested form may be a part): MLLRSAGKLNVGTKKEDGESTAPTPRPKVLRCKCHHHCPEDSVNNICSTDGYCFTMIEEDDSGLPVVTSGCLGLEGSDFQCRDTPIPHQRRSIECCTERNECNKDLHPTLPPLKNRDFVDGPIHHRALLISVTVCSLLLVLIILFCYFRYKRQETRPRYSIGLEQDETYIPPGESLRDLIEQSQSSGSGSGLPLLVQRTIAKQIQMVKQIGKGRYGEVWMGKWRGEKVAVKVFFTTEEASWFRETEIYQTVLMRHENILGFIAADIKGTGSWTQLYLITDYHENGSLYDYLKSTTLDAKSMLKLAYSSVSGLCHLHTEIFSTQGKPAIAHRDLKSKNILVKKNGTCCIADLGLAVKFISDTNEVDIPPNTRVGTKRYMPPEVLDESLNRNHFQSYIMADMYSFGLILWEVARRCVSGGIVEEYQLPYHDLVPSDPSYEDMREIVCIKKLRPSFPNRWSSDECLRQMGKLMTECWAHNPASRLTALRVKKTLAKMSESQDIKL

SMILES: COc1cc(N(C)c2ccnc3ccc(C(F)(F)F)cc23)cc(OC)c1OC
- Kd [1]: 9900 nM
- Kd [2]: 480 nM
- IC50 [3]: > 10000 nM

SMILES: COc1cc(Nc2cc(C)nc3ccc(C(F)(F)F)cc23)cc(OC)c1OC
- Kd [1]: > 30000 nM
- IC50 [3]: > 10000 nM

SMILES: COc1cc(Nc2ccnc3ccccc23)cc(OC)c1OC
- Kd [1]: 170 nM

SMILES: COc1cc(Nc2ccnc3ccc(C(F)(F)F)cc23)cc(OC)c1OC
- Kd [4]: 1900 nM
- Kd (Ephrin type-A receptor 1): 3100 nM
- Kd (Ephrin type-A receptor 8): 1100 nM
- Kd (Ephrin type-B receptor 6): 1600 nM
- Kd [5]: 1100 nM
- Kd [6]: 690 nM
- Kd [7]: 1400 nM

SMILES: COc1cc(Nc2ncnc3ccc(C(F)(F)F)cc23)cc(OC)c1OC
- Kd [1]: 130 nM

The next lines start with the values.

- Kd [1]: 6.3 nM
SMILES: COc1cc(Nc2ccnc3ccc(Cl)cc23)cc(OC)c1OC

- Kd [1]: 34 nM
SMILES: COc1cc(Nc2ccnc3ccc(C(C)(C)C)cc23)cc(OC)c1OC

- Kd [1]: 4.9 nM
SMILES: COc1cc(Nc2ccnc3ccc(C#N)cc23)cc(OC)c1OC

- Kd [1]: 48 nM
SMILES: COc1ccc2nccc(Nc3cc(OC)c(OC)c(OC)c3)c2c1

- Kd [1]: 8.6 nM
SMILES: COc1cc(Nc2ccnc3ccc(I)cc23)cc(OC)c1OC

- Kd [1]: 35 nM
- inhibition [8]: 20%
SMILES: COc1ccc2c(Nc3cc(OC)c(OC)c(OC)c3)ccnc2c1

- Kd [4]: 1200 nM
- Kd (Activin receptor type-1): 1000 nM
- Kd [9]: 260 nM
- Kd (Ephrin type-B receptor 6): 710 nM
SMILES: COc1cc(Nc2ccnc3ccc(Br)cc23)cc(OC)c1OC

- Kd [1]: 11 nM
- Kd [4]: 170 nM
- Kd [10]: 92 nM
- Kd (Activin receptor type-1): 1300 nM
- Kd [11]: 280 nM
- Kd (Ephrin type-A receptor 1): 1300 nM
- Kd (Ephrin type-A receptor 8): 560 nM
- Kd (Ephrin type-B receptor 6): 130 nM
- Kd [5]: 350 nM
- Kd [12]: 430 nM
- Kd [13]: 190 nM
SMILES: COc1cc2nccc(Nc3cc(OC)c(OC)c(OC)c3)c2cc1OC
